“Also recorded” adds a separate entry of the source. Like-named read-outs stand apart in the source and are kept apart here. [ ]: non-standard residue; d: D form. pGlu = O=C1CC[C@@H](C(=O)O)N1
Legend:
[1] = test system: FSH release from hemi-anterior pituitaries of adult male rats; assay: FSH release in vitro, incubation with hemi-anterior pituitaries of male rats (RIA); assay type: cell-based, rat; conditions: for FSH (ng/ml) / FSH: 3 hr incubation
Method: (§1) Adult male and female Sprague-Dawley rats (Holtzmann, Madison, Wis.; 200-250 g) were housed two per cage under controlled conditions of temperature (23-25° C.) and lighting (on from 0500 to 1700 hr). The animals had free access to a pellet diet and to tap water.
(§2) After acclimatization for 5 or more days in the vivarium, male rats were killed by decapitation. Following removal of the posterior lobe, the anterior pituitary (AP) was bisected longitudinally, and each AP was incubated in a tube containing 0.5 ml Krebs-Ringer bicarbonate (5 mM ascorbic acid; pH 7.4) buffer (KRB) in an atmosphere of 95% O2/5% CO2 in a Dubnoff shaker (50 cycles per min) for a period of 60 min. Following this pre-incubation period, the APs were incubated for 3 hr in fresh KRB buffer alone (control), or in KRB containing one of various concentrations of synthetic mammalian (m)-LHRH, l-LHRH-III, l-LHRH-I, chicken (c)-LHRH-II, or salmon (s)-LHRH. The medium was then aspirated, and was stored frozen at −20° C. until radio-immunoassays (RIA) for FSH and LH were conducted. FSH and LH were measured using kits supplied by the National Institute of Arthritis Digestive Diabetes and Kidney Disease; hormone values were expressed in terms of NIH-rFSH-RP-2 and NIH-rLH-RP-3 standards. The experiments were repeated twice. The inter- and intra-assay coefficients of variation for FSH assays were 7.5% and 5.2%, respectively; and were 6.5% and 4.8% for LH assays.

[2] = test system: LH release from hemi-anterior pituitaries of adult male rats; assay: LH release in vitro, incubation with hemi-anterior pituitaries of male rats (RIA); assay type: cell-based, rat; conditions: for LH / LH (ng/ml): 3 hr incubation
Method: as §1, §2

[3] = test system: FSH or LH release; conditions: Yu et al., Brain Res. Bull. 1990; cited from earlier work
[4] = test system: plasma FSH; assay: FSH release in vivo, ovariectomized estrogen/progesterone-treated female rats, intravenous injection; design: species or system rat; conditions: for Change in FSH from baseline, 10 minutes in post-injection (ng/ml): 10 minutes post-injection, saline −3.85 ± 0.82
Method: as §1
(§3) Female rats were ovariectomized under anesthesia with isoflurane 4 weeks prior to the in vivo experiments. Three days before blood sampling, each ovariectomized rat was injected subcutaneously with 50 μg estradiol benzoate (Sigma Chemical Co., St. Louis, Mo.) dissolved in 0.1 ml sesame oil, and 25 mg progesterone (Eli Lilly, Indianapolis, Ind.) dissolved in 0.5 ml sesame oil. One day prior to testing, each animal was implanted with a jugular-atrial catheter. On the morning of testing, polyethylene tubing (PE-50) was connected to the distal end of the jugular-atrial catheter on the rat's dorsum to facilitate blood sampling and intravenous injection. Animals were acclimatized one hour before initial blood samples were taken. Heparinized blood samples ([…]) were collected just before, and at 10, 30, and 60 minutes after injection of 0.5 ml isotonic saline or l-LHRH-III (10 or 100 pmole) in 0.5 ml isotonic saline. After removal of each blood sample, an equal volume of isotonic saline was administered to maintain blood volume.

[5] = test system: plasma LH; assay: LH release in vivo, ovariectomized estrogen/progesterone-treated female rats, intravenous injection; design: species or system rat; conditions: for Change in LH from baseline, 10 minutes post-injection: saline −0.070 ± 0.122
Method: as §1, §3

[6] = test system: Petromryzon marinus (lamprey) ovaries; conditions: Sower et al., Endocrinology 1993; cited from earlier work
[7] = test system: selective FSH-releasing activity; assay: In vivo screening of known LHRH's from various species for selective FSH-releasing activity; conditions: unpublished data of the applicant's laboratory
Text: Our laboratory also screened known LHRH's from various species for selective FSH-releasing activity; and we also evaluated the activity of 25 analogs of LHRH in in vivo assays.

[8] = Table 2, 10^−5M, KRB control 97.7 ± 20.4
[9] = Table 2, 10^−6M, KRB control 97.7 ± 20.4
[10] = Table 3, 10^−5M, KRB control 139.3 ± 16.9
[11] = Table 3, 10^−6M, KRB control 139.3 ± 16.9
[12] = Table 4, 10^−6M, KRB control 157.5 ± 13.2
[13] = Table 4, 10^−7M, KRB control 157.5 ± 13.2
[14] = Table 4, 10^−8M, KRB control 157.5 ± 13.2
[15] = Table 5, 10^−6M, KRB control 149.3 ± 17.0
[16] = Table 5, 10^−7M, KRB control 149.3 ± 17.0
[17] = Table 5, 10^−8M, KRB control 149.3 ± 17.0
[18] = 10 or 100 pmole intravenous, versus saline control

[pGlu]HWSLEWKPG-NH2 [l-LHRH-I, reference compound]
FSH release in vitro (result in words) [1]: small but statistically significant release of FSH; also recorded: minimal potency to release either FSH or LH | FSH (ng/ml) [1, 8]: **178.2 ± 17.0 ng/ml | FSH (ng/ml) [1, 9]: *164.0 ± 29.3 ng/ml | LH release in vitro (result in words) [2]: inactive; also recorded: minimal potency to release either FSH or LH | LH [2, 10]: 120.4 ± 8.1 ng/mL | LH [2, 11]: 134.1 ± 23.2 ng/mL | activity in releasing FSH or LH in rats (result in words) [3]: relatively low activity in releasing either FSH or LH

pGlu-His-Trp-Ser-His-Asp-Trp-Lys-Pro-Gly-NH2 (XHWSHDWKPX; pyroGlu; C-terminal amide) [l-LHRH-III]
FSH release in vitro (result in words) [1]: approximately equipotent toward releasing FSH | FSH (ng/ml) ([1]; Table 2, 10^−4M, KRB control 97.7 ± 20.4): ****368.6 ± 40.9 ng/ml | FSH (ng/ml) [1, 8]: **283.0 ± 60.8 ng/ml | FSH (ng/ml) [1, 9]: **278.2 ± 40.9 ng/ml | FSH (ng/ml) ([1]; Table 2, 10^−7M, KRB control 97.7 ± 20.4): ***213.0 ± 17.9 ng/ml | FSH (ng/ml) ([1]; Table 2, 10^−8M, KRB control 97.7 ± 20.4): **255.7 ± 42.4 ng/ml | FSH (ng/ml) ([1]; Table 2, 10^−9M, KRB control 97.7 ± 20.4): *228.3 ± 52.5 ng/ml | concentration of maximal effect on FSH release ([1]; Table 2 experiment, levelled off through 10^−4 M): about 10^−6 M | minimal effective concentration (MEC) for FSH release ([1]; Table 2 experiment, lowest concentration tested): ≤ 10^−9 M | FSH [1, 12]: 215.0 ± 38.0 ng/mL | FSH (ng/ml) [1, 13]: *203.2 ± 16.4 ng/ml | FSH (ng/ml) [1, 14]: *249.3 ± 31.3 ng/ml | FSH ([1]; Table 4, 10^−9M, KRB control 157.5 ± 13.2): 196.3 ± 21.2 ng/mL | MEC for a statistically significant release of FSH relative to c-LHRH-II ([1]; Table 4 experiment): two orders of magnitude lower | LH release in vitro (result in words) [2]: much weaker effect on LH release; also recorded: no LH-releasing activity | LH (ng/ml) ([2]; Table 3, 10^−4M, KRB control 139.3 ± 16.9): **236.6 ± 19.3 ng/ml | LH (ng/ml) [2, 10]: *202.9 ± 31.2 ng/ml | LH (ng/ml) [2, 11]: *233.6 ± 33.8 ng/ml | LH ([2]; Table 3, 10^−7M, KRB control 139.3 ± 16.9): 179.9 ± 28.4 ng/mL | LH ([2]; Table 3, 10^−8M, KRB control 139.3 ± 16.9): 165.7 ± 26.6 ng/mL | LH ([2]; Table 3, 10^−9M, KRB control 139.3 ± 16.9): 171.8 ± 27.3 ng/mL | concentrations active on LH release ([2]; Table 3 experiment): 10^−6-10^−4 M | LH [2, 15]: 176.0 ± 9.3 ng/mL | LH [2, 16]: 182.7 ± 13.7 ng/mL | LH [2, 17]: 163.2 ± 6.5 ng/mL | LH ([2]; Table 5, 10^−9M, KRB control 149.3 ± 17.0): 158.7 ± 10.2 ng/mL | Change in FSH from baseline, 10 minutes in post-injection (ng/ml) ([4]; 10 pmole intravenous): **−0.75 ± 0.37 ng/ml | Change in FSH from baseline, 10 minutes in post-injection (ng/ml) ([4]; 100 pmole intravenous): **−0.43 ± 0.61 ng/ml | FSH release in vivo (result in words) [4, 18]: increase in FSH in vivo (P<0.01) within ten minutes; also recorded: highly significant increase in plasma FSH 10 minutes after injection, an effect that vanished by 30 minutes post-injection; also recorded: slightly greater effect at 10 minutes that was maintained 30 minutes after injection; also recorded: caused the release of FSH in vivo, but not LH | Change in LH from baseline, 10 minutes post-injection ([5]; 10 pmole intravenous): -0.022 ± 0.078 ng/mL | Change in LH from baseline, 10 minutes post-injection ([5]; 100 pmole intravenous): 0.097 ± 0.077 ng/mL | LH release in vivo (result in words) [5, 18]: no significant increase in LH; also recorded: Neither the 10 pmole nor the 100 pmole dose of l-LHRH-III produced a statistically significant difference in LH levels | estradiol and progesterone release from lamprey ovaries (result in words) [6]: stimulated estradiol and progesterone release

pGlu-His-Trp-Ser-His-Gly-Trp-Tyr-Pro-Gly-NH2 (XHWSHGWYPX; HELM PEPTIDE1{[Glp].H.W.S.H.G.W.Y.P.G.[am]}$$$$V2.0; SMILES NC(=O)CNC(=O)[C@@H]1CCCN1C(=O)[C@H](Cc1ccc(O)cc1)NC(=O)[C@H](Cc1c[nH]c2ccccc12)NC(=O)CNC(=O)[C@H](Cc1c[nH]cn1)NC(=O)[C@H](CO)NC(=O)[C@H](Cc1c[nH]c2ccccc12)NC(=O)[C@H](Cc1c[nH]cn1)NC(=O)[C@@H]1CCC(=O)N1) [c-LHRH-II, reference compound]
FSH release in vitro (result in words) [1]: low potency | FSH (ng/ml) [1, 12]: ***263.7 ± 17.8 ng/ml | FSH [1, 13]: 209.3 ± 44.0 ng/mL | FSH [1, 14]: 123.7 ± 18.0 ng/mL | concentration significantly increasing FSH release ([1]; Table 4 experiment, highest concentration tested): 10^−6 M | LH release in vitro (result in words) [2]: equivalent LH-releasing activity to that of m-LHRH | LH (ng/ml) [2, 15]: *239.0 ± 31.7 ng/ml | LH (ng/ml) [2, 16]: *216.3 ± 17.7 ng/ml | LH (ng/ml) [2, 17]: *199.3 ± 13.6 ng/ml | LH release in vitro (result in words) ([2]; listed as Chicken (c) LHRH-II): stimulated LH release | selectivity for FSH release in vivo (result in words) [7]: slight selectivity for FSH release | selectivity for FSH release in vivo (result in words) ([7]; listed as chicken (c) LHRH-II): slightly preferential FSH-releasing activity in vivo

pGlu-His-Trp-Ser-Tyr-Gly-Trp-Leu-Pro-Gly-NH2 (XHWSYGWLPX; HELM PEPTIDE1{[Glp].H.W.S.Y.G.W.L.P.G.[am]}$$$$V2.0; SMILES CC(C)C[C@H](NC(=O)[C@H](Cc1c[nH]c2ccccc12)NC(=O)CNC(=O)[C@H](Cc1ccc(O)cc1)NC(=O)[C@H](CO)NC(=O)[C@H](Cc1c[nH]c2ccccc12)NC(=O)[C@H](Cc1c[nH]cn1)NC(=O)[C@@H]1CCC(=O)N1)C(=O)N1CCC[C@H]1C(=O)NCC(N)=O) [s-LHRH, reference compound]
FSH [1, 12]: 203.2 ± 39.2 ng/mL | FSH (ng/ml) [1, 13]: *233.0 ± 37.4 ng/ml | FSH release in vitro (result in words) ([1]; listed as Salmon (s)-LHRH): stimulated the release of both FSH and LH | FSH release in vitro (result in words) ([1]; listed as Salmon LHRH): low potency | LH release in vitro (result in words) [2]: stimulated the release of both FSH and LH | LH [2, 15]: 186.2 ± 13.6 ng/mL | LH (ng/ml) [2, 16]: *230.8 ± 38.8 ng/ml

Source: patent publication US6407205B1, “FSH-releasing peptides” (Board of Supervisors of Louisiana State University and …, priority 1997, dated 2002)
